Reference: patent publication US20240254118A1, “PRMT5 INHIBITORS AND USES THEREOF” (Gilead Sciences, Inc., priority 2022, published 2024)

What was measured:
[1] = system: SDMA signal (PRMT5 inhibition) in HCT116 MTAP-deleted cells; assay: Symmetric di-methyl arginine image-based high content screen assay (SDMA assay), HCT116 MTAP-deleted; type: cell-based; details: SDMA assay; for EC50: Homo sapiens, HCT-116, 72 h, 3 days of treatment, cell line not given, taken as HCT116 MTAP-deleted, read-out: EC50 (SDMA assay); for EC50 selectivity (SDMA assay): taken as HCT116 WT versus MTAP-deleted
Method: Symmetric di-methyl arginine image-based high content screen assay (SDMA assay) was performed in HCT116 WT and HCT116 MTAP-deleted cell lines to measure Symmetric Di-methyl Arginine (SDMA) signal reduction after selective PRMT5 inhibition in the MTAP-deleted cells.
Briefly, the same compound plates were generated as mentioned in the previous section of Cell viability assay on Day −1.
On Day 3, the cells were fixed by adding 45 μl of 8% neutralized formalin solution to each well using EL460 liquid dispenser 5 μl cassette and the cells were incubated for 30 minutes at room temperature. The formalin solution was washed off with […] phosphate buffered saline (dPBS), the 0.1% Triton X-100 solution in dPBS was used to permeabilize the cells for 15 minutes at room temperature. The triton solution was aspirated, 50 μl of Odyssey Blocking buffer+0.05% Tween20 was added and the plate was incubated at room temperature for 30 minutes.
The blocking solution was removed, a 20 μl of SDMA antibody (Cell Signaling Technology, Cat no. 13222) diluted 1:500 in Odyssey Blocking buffer+0.05% Tween20 was added and the plate was incubated at 4° C. overnight. Next day, the primary SDME antibody solution was washed from each well three times with 0.05% Tween20 in dPBS (PBST).
A 30 μl of the secondary antibody, a Goat anti-Rabbit Alexa Fluor Plus 488 (Invitrogen, Cat no. PIA32731) was diluted 1:500 in Odyssey Blocking buffer+0.05% Tween20 and the plate was incubated for 1.5 hours in dark at room temperature. The secondary antibody solution was removed, 30 μl of 5 mg/ml DAPI solution diluted 1:2000 in dPBS was added and the plate was incubated for 30 minutes in dark at room temperature. The DAPI solution was aspirated and the wells were washed six times with dPBS.
The SDMA signal and DAPI signal per cell were counted using a Cellomics CX7 LZR instrument reading under 488 and 405 nm laser, respectively. The SDMA signal was quantified by mean average intensity per cell from Alexa Fluor Plus 488 after the cell was defined with DAPI.

[2] = system: HCT116 MTAP-deleted cells; assay: Cell viability assay (CellTiter-Glo, 7 days), HCT116 MTAP-deleted; details: Homo sapiens, HCT-116, 168 h
Method: Control compounds were analyzed in parallel each time for quality control.
In Brief, on Day −1, a serial dilution of stock compounds in DMSO was performed using BioMek liquid handlers and dispensed using Echo acoustic dispenser into 384 well plates. Both tool compounds and sample compounds were spotted in the same plate for a dose response of PRMT5 inhibitors. Compound plates were stored as frozen until the cells were ready for seeding.
On Day 0, 100 HCT WT or HCT116 MTAP-deleted cells were seeded in compound-containing 384 well plates (50 μl per well) in RPMI 1640 media supplemented with 10% heat inactivated fetal bovine serum, Glutamax and penicillin streptomycin using EL460 liquid dispenser 5 μl cassette (BioTek, part no. 7170011). After equilibrating the plate in room temperature, the cells were incubated for 7 days inside the sealed incubator set at 37 °C with 90% humidity and 5% CO2.
On Day 7, the viability of cells was measured using a CTG assay kit (CellTitre-Glo; Promega cat no. G7573). Shortly, 40 μl per well of luminescent cell viability assay reagent were dispensed using EL460 liquid dispenser 5 μl cassette. CTG luminescence signal was measured using an EnVision plate reader (PerkinElmer) in accordance with manufacturer's instruction. The CC50 values for each compound after 7 days of treatment were calculated using 4 parameter non-linear logistical curve fit.

Row | EC50 [1] [nM] | EC50 selectivity (SDMA assay) [1] | SMILES | CC50 [2] [nM]
1 | < 1 | 14 | CCC(=O)N(C)N(Cc1ccc(C(F)(F)F)cn1)C(=O)c1cc2c(cc1F)nc(N)c1cnn(C)c12 [Example 42, 4-amino-7-fluoro-N′, 1-dimethyl-N′-propanoyl-N-[[5-(trifluoromethyl)-2-pyridyl]methyl]pyrazolo[4,3-c]quinoline-8-carbohydrazide] | < 100
2 | 1 to 5 | 226 | Cn1ncc2c(N)nc3ccc(C(=O)N(Cc4ccc(C(F)(F)F)cn4)N4CCC(C)(C)C4=O)cc3c21 [Example 43, 4-amino-N-(3,3-dimethyl-2-oxo-pyrrolidin-1-yl)-1-methyl-N-[[5-(trifluoromethyl)-2-pyridyl]methyl]pyrazolo[4,3-c]quinoline-8-carboxamide] | < 100
3 | 1 to 5 | 187 | Cn1ncc2c(N)nc3cc(F)c(C(=O)N(Cc4ccc(C(F)(F)F)cn4)N4CCC(C)(C)C4=O)cc3c21 [Example 44, 4-amino-N-(3,3-dimethyl-2-oxo-pyrrolidin-1-yl)-7-fluoro-1-methyl-N-[[5-(trifluoromethyl)-2-pyridyl]methyl]pyrazolo[4,3-c]quinoline-8-carboxamide] | < 100
4 | < 1 | 63 | CCOC(=O)NN(Cc1ccc(C(F)(F)F)cn1)C(=O)c1ccc2nc(N)c3cnn(C)c3c2c1 [Example 45, ethyl N-[(4-amino-1-methyl-pyrazolo[4,3-c]quinoline-8-carbonyl)-[[5-(trifluoromethyl)-2-pyridyl]methyl]amino]carbamate] | < 100
5 | < 1 | 6 | CCOC(=O)NN(Cc1ccc(C(F)(F)F)cn1)C(=O)c1cc2c(cc1F)nc(N)c1cnn(C)c12 [Example 46, ethyl N-[(4-amino-7-fluoro-1-methyl-pyrazolo[4,3-c]quinoline-8-carbonyl)-[[5-(trifluoromethyl)-2-pyridyl]methyl]amino]carbamate] | < 100
6 | < 1 | 121 | CC(=O)N(C)N(Cc1ccc(F)cc1F)C(=O)c1ccc2nc(N)c3cnn(C)c3c2c1 [Example 47, N′-acetyl-4-amino-N-[(2,4-difluorophenyl)methyl]-N′,1-dimethyl-pyrazolo[4,3-c]quinoline-8-carbohydrazide] | < 100
7 | 1 to 5 | 326 | CC(=O)N(C)N(Cc1ccc(F)c(F)c1F)C(=O)c1ccc2nc(N)c3cnn(C)c3c2c1 [Example 48, N′-acetyl-4-amino-N′,1-dimethyl-N-[(2,3,4-trifluorophenyl)methyl]pyrazolo[4,3-c]quinoline-8-carbohydrazide] | < 100
8 | < 1 | 163 | CC(=O)N(C)N(Cc1cc(F)c(F)cc1F)C(=O)c1ccc2nc(N)c3cnn(C)c3c2c1 [Example 49, N′-acetyl-4-amino-N′,1-dimethyl-N-[(2,4,5-trifluorophenyl)methyl]pyrazolo[4,3-c]quinoline-8-carbohydrazide] | < 100
9 | < 1 | 31 | Cn1ncc2c(N)nc3ccc(C(=O)N(Cc4ccc(C(F)(F)F)cc4F)N4CCOCC4=O)cc3c21 [Example 50, 4-amino-N-[[2-fluoro-4-(trifluoromethyl)phenyl]methyl]-1-methyl-N-(3-oxomorpholin-4-yl)pyrazolo[4,3-c]quinoline-8-carboxamide] | < 100
10 | 1 to 5 | 260 | CN(C(=O)C1(C)CC1)N(Cc1ccc(C(F)(F)F)cn1)C(=O)c1ccc2nc(N)c3cnn(C)c3c2c1 [Example 51, 4-amino-N′,1-dimethyl-N′-(1-methylcyclopropanecarbonyl)-N-[[5-(trifluoromethyl)-2-pyridyl]methyl]pyrazolo[4,3-c]quinoline-8-carbohydrazide] | < 100
11 | 1 to 5 | 174 | CN(C(=O)C1(C(F)(F)F)CC1)N(Cc1ccc(C(F)(F)F)cn1)C(=O)c1ccc2nc(N)c3cnn(C)c3c2c1 [Example 52, 4-amino-N′, 1-dimethyl-N′-[1-(trifluoromethyl)cyclopropanecarbonyl]-N-[[5-(trifluoromethyl)-2-pyridyl]methyl]pyrazolo[4,3-c]quinoline-8-carbohydrazide] | 100 to 1000
12 | 1 to 5 | 338 | Cn1ncc2c(N)nc3cc(F)c(C(=O)N(Cc4ccccn4)N4CCCC4=O)cc3c21 [Example 53, 4-amino-7-fluoro-1-methyl-N-(2-oxopyrrolidin-1-yl)-N-(pyridin-2-ylmethyl)-1H-pyrazolo[4,3-c]quinoline-8-carboxamide] | 100 to 1000
13 | > 5 | 339 | Cn1ncc2c(N)nc3ccc(C(=O)N(Cc4ccccn4)N4CCCC4=O)cc3c21 [Example 54, 4-amino-1-methyl-N-(2-oxopyrrolidin-1-yl)-N-(pyridin-2-ylmethyl)-1H-pyrazolo[4,3-c]quinoline-8-carboxamide] | 100 to 1000
14 | < 1 | 168 | Cn1ncc2c(N)nc3cc(F)c(C(=O)N(Cc4ccccc4F)N4CCCC4=O)cc3c21 [Example 55, 4-amino-7-fluoro-N-(2-fluorobenzyl)-1-methyl-N-(2-oxopyrrolidin-1-yl)-1H-pyrazolo[4,3-c]quinoline-8-carboxamide] | < 100
15 | < 1 | 195 | Cn1ncc2c(N)nc3ccc(C(=O)N(Cc4ccccc4F)N4CCCC4=O)cc3c21 [Example 56, 4-amino-N-(2-fluorobenzyl)-1-methyl-N-(2-oxopyrrolidin-1-yl)-1H-pyrazolo[4,3-c]quinoline-8-carboxamide] | < 100
16 | 1 to 5 | 108 | Cn1ncc2c(N)nc3cc(F)c(C(=O)N(Cc4ccc(C(F)(F)F)nc4)N4CCCC4=O)cc3c21 [Example 57, 4-amino-7-fluoro-1-methyl-N-(2-oxopyrrolidin-1-yl)-N-((6-(trifluoromethyl)pyridin-3-yl)methyl)-1H-pyrazolo[4,3-c]quinoline-8-carboxamide] | < 100
17 | 1 to 5 | 126 | CN1CCN(N(Cc2ccc(C(F)(F)F)cn2)C(=O)c2ccc3nc(N)c4cnn(C)c4c3c2)CC1 [Example 58, 4-amino-1-methyl-N-(4-methylpiperazin-1-yl)-N-((5-(trifluoromethyl)pyridin-2-yl)methyl)-1H-pyrazolo[4,3-c]quinoline-8-carboxamide] | 100 to 1000
18 | < 1 | 53 | CN1CCN(N(Cc2ccc(C(F)(F)F)cn2)C(=O)c2cc3c(cc2F)nc(N)c2cnn(C)c23)CC1 [Example 59, 4-amino-7-fluoro-1-methyl-N-(4-methylpiperazin-1-yl)-N-((5-(trifluoromethyl)pyridin-2-yl)methyl)-1H-pyrazolo[4,3-c]quinoline-8-carboxamide] | < 100
19 | 1 to 5 | 58 | Cn1ncc2c(N)nc3cc(F)c(C(=O)N(Cc4ccc(C(F)(F)F)nn4)N4CCCC4=O)cc3c21 [Example 60, 4-amino-7-fluoro-1-methyl-N-(2-oxopyrrolidin-1-yl)-N-((6-(trifluoromethyl)pyridazin-3-yl)methyl)-1H-pyrazolo[4,3-c]quinoline-8-carboxamide] | < 100
